The values that follow come from patent EP4385508A1, “FURAN FATTY ACIDS FOR ENHANCING MUSCLE MASS” (Centre de Coopération Internationale en Recherche …, priority 2022, dated 2024).

One experiment relates to Akt (Ser473). Description: Akt phosphorylation by Western blot in C2C12 myotubes. The class given is cell-based, Mouse. The note with it: FuFA-F2 together with insulin; 3-day pretreatment, 2 hours low-glucose, 30 minutes. The protocol: (§1) Mouse myoblasts of the C2C12 cell line (ATCC) were seeded at a plating density of 7000 cells/cm2 in 6-well plates. They were grown in DMEM high glucose (4.5g/l) supplemented with gentamycin (50 µg/mL), amphotericin (50 µg/mL), and fetal calf serum (10%). Terminal differentiation was induced at cell confluence by lowering the medium serum concentration (0.5%).
(§2) When indicated, FuFA-F2 was added to the culture medium at the indicated concentration. For the differentiation studies, FuFA-F2 was added at the confluence at the same time as the change in media condition. Three doses of FuFA-F2 were studied at a final concentration of 1, 10, or 50 µM. Human insulin was used at a concentration of 100 nM.
Protein levels were assessed by Western blotting. Total proteins were measured using the Bio-Rad protein assay (Hercules, CA, USA) according to the manufacturer's instructions. Total proteins were lysed in RIPA buffer (20mM Tris, 150mM NaCl, 1mM EDTA, 1% NP40, pH 7.5 + complete cocktail protease inhibitors + Pierce phosphatase inhibitors tablet). 40 µg of cell extracts were loaded and blotted onto a nitrocellulose membrane. The membranes were washed, blocked with 5% nonfat milk and incubated in primary antibody overnight at 4°C. […]
A general note: A western blot detects proteins with antibodies after separation by electrophoresis.

In the next experiment the test system is C2C12 myoblasts. Description: C2C12 myoblast differentiation, fusion index by cytoimmunofluorescence. Format: cell-based, Mouse. The note with it: 5 days in differentiation medium. On the procedure: as §1, §2
Cytoimmunofluorescence myoblast differentiation was assessed by observation of morphological changes and accumulation of muscle-specific markers. After methanol fixation and three washes with PBS-gelatin (0.2%), cells were labeled with an antibody raised against Troponin T (T6277, Sigma, diluted at 1:50) (Sigma-Aldrich, Saint-Quentin Fallavier, France). Nuclei were stained with Hoechst 33258 (1 µg/mL). To assess the extent of differentiation, the fusion index (percentage of nuclei incorporated into myotubes relative to the total number of nuclei) was calculated 120 h after adding the differentiation medium. Nuclei were counted on 10 images/dish using ImageJ software. […]

For experiment [1], the system named is complex IV (cytochrome c oxidase). Description: Complex IV activity of C2C12 myotubes. Format: cell-based. The note with it: Mus musculus, C2C12, 72 h, 3 days, change vs control, trend p<0.07. The protocol: as §1, §2
Mitochondrial respiratory complex activities were determined as previously described (Casas et al., 2008, PloS ONE, Vol. 3(6) : e2501). Citrate synthase (CS) activity was measured according to Srere (Srere et al., 1967, Science, Vol. 158(3803) : 936-937) by following the color formation of 5-thio-2-nitrobenzoic acid at 412 nm. The enzymatic activity of complex IV (cytochrome c oxidase) was measured according to Wharton and Tzagoloff (Wharton et al., 1967, Methods in Enzymology, Vol. 10, Edn Elsevier BV, Amsterdam, The Netherlands), a spectrophotometer following the oxidation of reduced cytochrome c at 550 nm, pH 7.4, and 37 °C. Cytochrome c was reduced with sodium dithionite. […]

Each structure is given as a SMILES string.

As to `CCCCCc1cc(C)c(CCCCCCCCC(=O)O)o1` [FuFA-F2], the “insulin-induced phosphorylation of Akt” value in the experiment on Akt (Ser473) is given as “did not alter”. Also, the myoblast fusion index in the experiment with C2C12 myoblasts (50 µM, 57% for control, p<0.05) is given as 61%; in the experiment with C2C12 myoblasts (1 and 10 µM (all doses except 50 µM)), “no significant effects”. This compound yielded an activation at 10 µM in experiment [1] of 60%.
